In ChEMBL document CHEMBL1128686, “Technetium-99m-labeled HOE 140: a potential bradykinin B2 receptor imaging agent” (J Med Chem, 1995):
pIC50: −log10 of the molar value.

How the values were obtained:
Rattus norvegicus [1] = assay: Distribution in bladder and urine of healthy rat 15 min after iv injection into the femoral vein; format: ADME, organism-based, Urinary bladder/Urine; conditions: in vivo, 0.25 h
Rattus norvegicus [2] = assay: Distribution in colon of healthy rat 5 min after iv injection into the femoral vein; format: ADME, organism-based; conditions: in vivo
Rattus norvegicus [3] = assay: Distribution in small intestine of healthy rat 15 min after iv injection into the femoral vein; format: ADME, organism-based; conditions: in vivo, 0.25 h
Rattus norvegicus [4] = assay: Distribution in content of colon of healthy rat 30 min after iv injection into the femoral vein; format: ADME, organism-based; conditions: in vivo, 0.5 h
Rattus norvegicus [5] = assay: Distribution in content of colon of healthy rat 5 min after iv injection into the femoral vein; format: ADME, organism-based; conditions: in vivo
Rattus norvegicus [6] = assay: Distribution in liver of healthy rat 24 hr after iv injection into the femoral vein; format: ADME, organism-based; conditions: in vivo
Rattus norvegicus [7] = assay: Distribution in spleen of healthy rat 24 hr after iv injection into the femoral vein; format: ADME, organism-based; conditions: in vivo
Rattus norvegicus [8] = assay: Distribution in bladder and urine of healthy rat 30 min after iv injection into the femoral vein; format: ADME, organism-based, Urinary bladder/Urine; conditions: in vivo, 0.5 h
Rattus norvegicus [9] = assay: Distribution in liver of healthy rat 30 min after iv injection into the femoral vein; format: ADME, organism-based; conditions: in vivo, 0.5 h
Rattus norvegicus [10] = assay: Distribution in liver of healthy rat 4 hr after iv injection into the femoral vein; format: ADME, organism-based; conditions: in vivo
Rattus norvegicus [11] = assay: Distribution in spleen of healthy rat 4 hr after iv injection into the femoral vein; format: ADME, organism-based; conditions: in vivo
Rattus norvegicus [12] = assay: Distribution in colon of healthy rat 30 min after iv injection into the femoral vein; format: ADME, organism-based; conditions: in vivo, 0.5 h
Rattus norvegicus [13] = assay: Distribution in small intestine of healthy rat 5 min after iv injection into the femoral vein; format: ADME, organism-based; conditions: in vivo
Rattus norvegicus [14] = assay: Distribution in lung of healthy rat 5 min after iv injection into the femoral vein; format: ADME, organism-based; conditions: in vivo
Rattus norvegicus [15] = assay: Distribution in lung of healthy rat 4 hr after iv injection into the femoral vein; format: ADME, organism-based; conditions: in vivo
Rattus norvegicus [16] = assay: Distribution in content of small intestine of healthy rat 30 min after iv injection into the femoral vein; format: ADME, organism-based; conditions: in vivo, 0.5 h
Rattus norvegicus [17] = assay: Distribution in stomach of healthy rat 15 min after iv injection into the femoral vein; format: ADME, organism-based; conditions: in vivo, 0.25 h
Rattus norvegicus [18] = assay: Distribution in blood of healthy rat 5 min after iv injection into the femoral vein; format: ADME, organism-based; conditions: in vivo
B2 bradykinin receptor [19] = molecular target: T1, B2 bradykinin receptor (Cavia porcellus, UniProt O70526); assay: In vitro antagonistic activity for Bradykinin receptor B2 by guinea pig ileal membrane receptor assay.; format: functional
T1 sequence (O70526 whole entry): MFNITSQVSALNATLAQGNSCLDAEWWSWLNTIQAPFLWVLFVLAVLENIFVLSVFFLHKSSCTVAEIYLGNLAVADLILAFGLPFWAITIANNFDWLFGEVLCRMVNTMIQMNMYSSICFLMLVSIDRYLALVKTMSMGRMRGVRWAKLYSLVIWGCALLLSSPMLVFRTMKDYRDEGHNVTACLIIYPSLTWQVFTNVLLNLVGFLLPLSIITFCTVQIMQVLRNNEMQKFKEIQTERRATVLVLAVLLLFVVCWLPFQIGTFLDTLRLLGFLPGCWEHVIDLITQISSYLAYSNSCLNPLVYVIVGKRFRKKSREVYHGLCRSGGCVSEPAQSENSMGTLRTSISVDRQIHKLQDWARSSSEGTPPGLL

Rattus norvegicus [20] = assay: Distribution in kidney of healthy rat 4 hr after iv injection into the femoral vein; format: ADME, organism-based; conditions: in vivo
Rattus norvegicus [21] = assay: Distribution in blood of healthy rat 24 hr after iv injection into the femoral vein; format: ADME, organism-based; conditions: in vivo
Rattus norvegicus [22] = assay: Distribution in spleen of healthy rat 5 min after iv injection into the femoral vein; format: ADME, organism-based; conditions: in vivo
Rattus norvegicus [23] = assay: Distribution in content of small intestine of healthy rat 15 min after iv injection into the femoral vein; format: ADME, organism-based; conditions: in vivo, 0.25 h
Rattus norvegicus [24] = assay: Distribution in blood of healthy rat 15 min after iv injection into the femoral vein; format: ADME, organism-based; conditions: in vivo, 0.25 h
Rattus norvegicus [25] = assay: Distribution in bladder and urine of healthy rat 24 hr after iv injection into the femoral vein; format: ADME, organism-based, Urinary bladder/Urine; conditions: in vivo
Rattus norvegicus [26] = assay: Distribution in thyroid gland of healthy rat 4 hr after iv injection into the femoral vein; format: ADME, organism-based; conditions: in vivo
Rattus norvegicus [27] = assay: Distribution in content of small intestine of healthy rat 24 hr after iv injection into the femoral vein; format: ADME, organism-based; conditions: in vivo
Rattus norvegicus [28] = assay: Distribution in thyroid gland of healthy rat 5 min after iv injection into the femoral vein; format: ADME, organism-based; conditions: in vivo
Rattus norvegicus [29] = assay: Distribution in blood of healthy rat 30 min after iv injection into the femoral vein; format: ADME, organism-based; conditions: in vivo, 0.5 h
Rattus norvegicus [30] = assay: Distribution in kidney of healthy rat 30 min after iv injection into the femoral vein; format: ADME, organism-based; conditions: in vivo, 0.5 h
Rattus norvegicus [31] = assay: Distribution in content of small intestine of healthy rat 5 min after iv injection into the femoral vein; format: ADME, organism-based; conditions: in vivo
Rattus norvegicus [32] = assay: Distribution in kidney of healthy rat 24 hr after iv injection into the femoral vein; format: ADME, organism-based; conditions: in vivo
Rattus norvegicus [33] = assay: Distribution in content of colon of healthy rat 24 hr after iv injection into the femoral vein; format: ADME, organism-based; conditions: in vivo
Rattus norvegicus [34] = assay: Distribution in small intestine of healthy rat 30 min after iv injection into the femoral vein; format: ADME, organism-based; conditions: in vivo, 0.5 h
Rattus norvegicus [35] = assay: Distribution in colon of healthy rat 24 hr after iv injection into the femoral vein; format: ADME, organism-based; conditions: in vivo
Rattus norvegicus [36] = assay: Distribution in bladder and urine of healthy rat 5 min after iv injection into the femoral vein; format: ADME, organism-based, Urinary bladder/Urine; conditions: in vivo
Rattus norvegicus [37] = assay: Distribution in thyroid gland of healthy rat 24 hr after iv injection into the femoral vein; format: ADME, organism-based; conditions: in vivo
Rattus norvegicus [38] = assay: Distribution in spleen of healthy rat 15 min after iv injection into the femoral vein; format: ADME, organism-based; conditions: in vivo, 0.25 h
Rattus norvegicus [39] = assay: Distribution in small intestine of healthy rat 24 hr after iv injection into the femoral vein; format: ADME, organism-based; conditions: in vivo
Rattus norvegicus [40] = assay: Distribution in kidney of healthy rat 15 min after iv injection into the femoral vein; format: ADME, organism-based; conditions: in vivo, 0.25 h
Rattus norvegicus [41] = assay: Distribution in colon of healthy rat 4 hr after iv injection into the femoral vein; format: ADME, organism-based; conditions: in vivo
Rattus norvegicus [42] = assay: Distribution in content of colon of healthy rat 15 min after iv injection into the femoral vein; format: ADME, organism-based; conditions: in vivo, 0.25 h
Rattus norvegicus [43] = assay: Distribution in stomach of healthy rat 24 hr after iv injection into the femoral vein; format: ADME, organism-based; conditions: in vivo
B2 bradykinin receptor [44] = molecular target: T1, B2 bradykinin receptor; assay: In vitro antagonistic activity for Bradykinin receptor B2 by guinea pig pulmonary artery assay.; format: functional
Rattus norvegicus [45] = assay: Distribution in stomach of healthy rat 5 min after iv injection into the femoral vein; format: ADME, organism-based; conditions: in vivo
Rattus norvegicus [46] = assay: Distribution in thyroid gland of healthy rat 30 min after iv injection into the femoral vein; format: ADME, organism-based; conditions: in vivo, 0.5 h
Rattus norvegicus [47] = assay: Distribution in content of colon of healthy rat 4 hr after iv injection into the femoral vein; format: ADME, organism-based; conditions: in vivo
Rattus norvegicus [48] = assay: Distribution in small intestine of healthy rat 4 hr after iv injection into the femoral vein; format: ADME, organism-based; conditions: in vivo
Rattus norvegicus [49] = assay: Distribution in thyroid gland of healthy rat 15 min after iv injection into the femoral vein; format: ADME, organism-based; conditions: in vivo, 0.25 h
Rattus norvegicus [50] = assay: Distribution in content of small intestine of healthy rat 4 hr after iv injection into the femoral vein; format: ADME, organism-based; conditions: in vivo
Rattus norvegicus [51] = assay: Distribution in bladder and urine of healthy rat 4 hr after iv injection into the femoral vein; format: ADME, organism-based, Urinary bladder/Urine; conditions: in vivo
Rattus norvegicus [52] = assay: Distribution in stomach of healthy rat 30 min after iv injection into the femoral vein; format: ADME, organism-based; conditions: in vivo, 0.5 h
Rattus norvegicus [53] = assay: Distribution in kidney of healthy rat 5 min after iv injection into the femoral vein; format: ADME, organism-based; conditions: in vivo
Rattus norvegicus [54] = assay: Distribution in spleen of healthy rat 30 min after iv injection into the femoral vein; format: ADME, organism-based; conditions: in vivo, 0.5 h
Rattus norvegicus [55] = assay: Distribution in blood of healthy rat 4 hr after iv injection into the femoral vein; format: ADME, organism-based; conditions: in vivo
Rattus norvegicus [56] = assay: Distribution in lung of healthy rat 24 hr after iv injection into the femoral vein; format: ADME, organism-based; conditions: in vivo
Rattus norvegicus [57] = assay: Distribution in lung of healthy rat 30 min after iv injection into the femoral vein; format: ADME, organism-based; conditions: in vivo, 0.5 h
Rattus norvegicus [58] = assay: Distribution in colon of healthy rat 15 min after iv injection into the femoral vein; format: ADME, organism-based; conditions: in vivo, 0.25 h
Rattus norvegicus [59] = assay: Distribution in lung of healthy rat 15 min after iv injection into the femoral vein; format: ADME, organism-based; conditions: in vivo, 0.25 h
Rattus norvegicus [60] = assay: Distribution in stomach of healthy rat 4 hr after iv injection into the femoral vein; format: ADME, organism-based; conditions: in vivo
Rattus norvegicus [61] = assay: Distribution in liver of healthy rat 15 min after iv injection into the femoral vein; format: ADME, organism-based; conditions: in vivo, 0.25 h
[62] = Distribution in feces of healthy rat 24 hr after iv injection into the femoral vein; format: ADME, organism-based; conditions: faeces, read-out: Organ distribution
Rattus norvegicus [63] = assay: Distribution in liver of healthy rat 5 min after iv injection into the femoral vein; format: ADME, organism-based; conditions: in vivo

Organ distribution (Rattus norvegicus [1]): 20.3%
Organ distribution (Rattus norvegicus [2]): 1%
Organ distribution (Rattus norvegicus [3]): 3.74%
Organ distribution (Rattus norvegicus [4]): 0.17%
Organ distribution (Rattus norvegicus [5]): 0.22%
Organ distribution (Rattus norvegicus [6]): 2.72%
Organ distribution (Rattus norvegicus [7]): 0.08%
Organ distribution (Rattus norvegicus [8]): 33%
Organ distribution (Rattus norvegicus [9]): 4.31%
Organ distribution (Rattus norvegicus [10]): 5.03%
Organ distribution (Rattus norvegicus [11]): 0.12%
Organ distribution (Rattus norvegicus [12]): 0.48%
Organ distribution (Rattus norvegicus [13]): 2.92%
Organ distribution (Rattus norvegicus [14]): 1.2%
Organ distribution (Rattus norvegicus [15]): 0.1%
Organ distribution (Rattus norvegicus [16]): 4.84%
Organ distribution (Rattus norvegicus [17]): 1.13%
Organ distribution (Rattus norvegicus [18]): 13.2%
pIC50 (B2 bradykinin receptor [19]): 8.10
Organ distribution (Rattus norvegicus [20]): 4.33%
Organ distribution (Rattus norvegicus [21]): 0.5%
Organ distribution (Rattus norvegicus [22]): 0.27%
Organ distribution (Rattus norvegicus [23]): 2.79%
Organ distribution (Rattus norvegicus [24]): 8.62%
Organ distribution (Rattus norvegicus [25]): 79.9%
Organ distribution (Rattus norvegicus [26]): 0.02%
Organ distribution (Rattus norvegicus [27]): 0.06%
Organ distribution (Rattus norvegicus [28]): 0.12%
Organ distribution (Rattus norvegicus [29]): 5.5%
Organ distribution (Rattus norvegicus [30]): 8.86%
Organ distribution (Rattus norvegicus [31]): 1.83%
Organ distribution (Rattus norvegicus [32]): 3.07%
Organ distribution (Rattus norvegicus [33]): 0.56%
Organ distribution (Rattus norvegicus [34]): 1.67%
Organ distribution (Rattus norvegicus [35]): 0.09%
Organ distribution (Rattus norvegicus [36]): 3.83%
Organ distribution (Rattus norvegicus [37]): 0.01%
Organ distribution (Rattus norvegicus [38]): 0.19%
Organ distribution (Rattus norvegicus [39]): 0.19%
Organ distribution (Rattus norvegicus [40]): 7%
Organ distribution (Rattus norvegicus [41]): 0.44%
Organ distribution (Rattus norvegicus [42]): 0.2%
Organ distribution (Rattus norvegicus [43]): 0.06%
pIC50 (B2 bradykinin receptor [44]): 7.85
Organ distribution (Rattus norvegicus [45]): 1.55%
Organ distribution (Rattus norvegicus [46]): 0.11%
Organ distribution (Rattus norvegicus [47]): 6.96%
Organ distribution (Rattus norvegicus [48]): 0.71%
Organ distribution (Rattus norvegicus [49]): 0.11%
Organ distribution (Rattus norvegicus [50]): 1.85%
Organ distribution (Rattus norvegicus [51]): 74.9%
Organ distribution (Rattus norvegicus [52]): 0.91%
Organ distribution (Rattus norvegicus [53]): 8.46%
Organ distribution (Rattus norvegicus [54]): 0.19%
Organ distribution (Rattus norvegicus [55]): 0.5%
Organ distribution (Rattus norvegicus [56]): 0.04%
Organ distribution (Rattus norvegicus [57]): 0.55%
Organ distribution (Rattus norvegicus [58]): 0.65%
Organ distribution (Rattus norvegicus [59]): 0.82%
Organ distribution (Rattus norvegicus [60]): 0.46%
Organ distribution (Rattus norvegicus [61]): 4.48%
dose excreted at 24 h [62]: 8.4%
Organ distribution (Rattus norvegicus [63]): 5.25%
Compound: N=C(N)NCCC[C@H](NC(=O)[C@@H]1C[C@@H]2CCCC[C@@H]2N1C(=O)[C@H]1Cc2ccccc2CN1C(=O)[C@H](CO)NC(=O)[C@H](Cc1cccs1)NC(=O)CNC(=O)[C@@H]1C[C@@H](O)CN1C(=O)[C@@H]1CCCN1C(=O)[C@H](CCCNC(=N)N)NC(=O)[C@@H](CCCNC(=N)N)NC(=O)c1ccc(CN2CCCNCCNCCCNCC2)cc1)C(=O)O
